Reference: publication PMC5827777, “Synthesis and biological evaluation of RGD and isoDGR peptidomimetic-α-amanitin conjugates for tumor-targeting” (Beilstein Journal of Organic Chemistry, 2018)
Read-outs that look alike come from different tables or passages of the source.

Key:
[1] = test system: αVβ3 positive and αVβ3 negative cell line; design: method as in PMID 28449309; conditions: αVβ3 positive vs αVβ3 negative cell line; cited from earlier work
[2] = target: T1, Recombinant human integrin αVβ3 (Homo sapiens, UniProt P05106+P06756); assay: Inhibition of biotinylated vitronectin binding to purified αVβ3 receptor (solid phase receptor binding assay); conditions: conjugates, Table 2; mean ± SD of triplicate determinations
T1 construct: purchased R&D Systems, Minneapolis, MN, USA
Experimental: Conjugates 7–11 were evaluated for their ability to inhibit biotinylated vitronectin binding to the purified αVβ3 receptor. Screening assays were performed by incubating the immobilized integrin receptor with solutions of the cyclo[DKP-RGD]-α-amanitin and cyclo[DKP-isoDGR]-α-amanitin conjugates 7–11 at different concentrations (10^−12 to 10^−5 M) in the presence of biotinylated vitronectin (1 µg mL^−1) and measuring bound vitronectin. […]
to assist the dissolution). The solution obtained was filtered (polypropylene, 0.45 μm, 13 mm ø, PK/100) and injected in the HPLC, affording purified products. Purity analyses were carried on a Dionex Ultimate 3000 instrument equipped with a Dionex RS Variable Wavelenght detector (column: Atlantis® Prep T3 OBDTM 5 μm 19 × 100 mm). The analyte (1 mg) was dissolved in 1 mL of H2O and was injected using the same gradient used in the purification step. The analysis of the integrals and the relative percentage of purity were performed with the software Chromeleon 6.80 SR11 Build 3161. Also, preparative HPLC LaPrep∑ equipped with autosampler AS3950 and a Phenomenex Luna C-18(2) column, 10 µm, 250 × 21.2 mm, with precolumn at 30 mL/min flow rate and analytical HPLC performed on Hitachi Chromaster (column oven Chromaster 5310, pump Chromaster 5110, autosampler Chromaster 5210, DAD Chromaster 5430) equipped with a Phenomenex Luna C-18(2) column, 10 µm, 250 × 4.6 mm, with precolumn at 1.4 mL/min flow rate were used. Freeze-drying: The product was dissolved in water and frozen with dry ice. The freeze-drying was carried out at least for 48 h at −50 °C using the instrument 5Pascal Lio5P DGT.
Solid phase receptor binding assays
Recombinant human integrin αVβ3 (R&D Systems, Minneapolis, MN, USA) was diluted to 0.5 µg/mL in coating buffer containing 20 mM Tris-HCl (pH 7.4), 150 mM NaCl, 1 mM MnCl2, 2 mM CaCl2, and 1 mM MgCl2. […] Absorbance at 415 nm was read in a SynergyTM HT Multi-Detection Microplate Reader (BioTek Instruments, Inc.). […]

[3] = test system: U87 cells (human glioblastoma, αVβ3+); assay: cells; assay type: cell-based; conditions: for IC50: 96 hours treatment, triplicate, read-out: IC50 U87 (αVβ3+), inhibition of cell viability
Experimental: (§1) The cell lines were treated with different concentrations of the free drug α-amanitin and conjugates 7–11 for 96 hours. […]
(§2) described recently.[S1] The SNP profiles matched known profiles or were unique. The purity of the cell lines was validated using the Multiplex cell Contamination Test by Multiplexion (Heidelberg, Germany) as described recently.[S2] No mycoplasma, SMRV or interspecies contamination was detected. U87-MG, MDA-MB 468 and A549 cells were cultivated continuously for not more than 3 months in MEM Eagle´s, DMEM or Ham´s F12 medium, respectively, supplemented with 10% heat inactivated fetus calf serum, L-glutamine and antibiotics. Cell lines were maintained at 37 °C and 5% CO2 in a high humidity atmosphere.
(§3) Cell therapy and viability assay
(§4) Cell viability assays were performed in U87-MG, A549 and MDA-MB 468 cell lines according to the following procedure: 2 × 10^3 cells/well were plated in 96-well black clear bottom plates (Perkin Elmer) and incubated overnight. 1:5 serial dilutions of compounds 7–11 were prepared in cell culture media. The compounds were added to the cell culture and incubated for additional 96 h. Starting concentration of compounds 7–11 in the wells was 1 × 10−5 M and cell viability was determined with the CellTiterGlo 2.0 assay (Promega) in accordance to manufacturer’s instructions. The cell viability was calculated in relation to the non-treated controls for each cell line. All samples were measured in triplicate. Data analysis was carried out using software GraphPad Prism (GraphPad Software Inc., La Jolla, CA, USA).
Competition experiment of compounds 10 and 11
The competition experiment s were performed in U87-MG and MDA-MB 468 cell lines according to the following procedure: 2 × 10^3 cells/well were plated in 96-well black clear bottom plates (Perkin Elmer) and incubated overnight. A solution containing 1 × 10−4 M of the conjugates 10 or 11 and 5 × 10−3 M of cilengitide (50-fold excess of ligand in comparison to the conjugate) was prepared in the growth medium and 1:5 serial dilutions were prepared in cell culture media. The compounds were added to cell culture and incubated for 96 h. The starting concentration of the compounds in the wells was 0.01 mM whereas that of cilengitide was 0.5 mM. The cell viability was determined with the CellTiterGlo 2.0 assay (Promega) in accordance to manufacturer’s instructions and the viability was calculated in relation to the non-treated controls for each cell line. All samples were measured in triplicate. Data analysis was carried out using software GraphPad Prism (GraphPad Software Inc., La Jolla, CA, USA).
(§5) [S1] F. Castro, W. G. Dirks, S. Fähnrich, A. Hotz-Wagenblatt, M. Pawlita, M. Schmitt, Int. J. Cancer […]
(§6) [S2] M. Schmitt, M. Pawlita, Nucleic Acids Res. 2009, 37, e119.

[4] = test system: MDA-MB-468 cells (breast adenocarcinoma, αVβ3−); assay: cells; assay type: cell-based; conditions: 96 hours treatment, triplicate, read-out: IC50 MDA-MB-468 (αVβ3−), inhibition of cell viability
Experimental: as §1, §2, §3
as §4, with “USA). […]” for “USA).”
as §5, §6

[5] = test system: A549 cells (human lung carcinoma, αVβ3−); assay: cells; assay type: cell-based
Experimental: as §1, §2, §3
as §4, with “USA). […]” for “USA).”

α5β1 = test system: α5β1; design: method as in PMID 28074920; conditions: read-out: IC50 α5β1 binding; cited from earlier work
αVβ5 = test system: αVβ5; design: method as in PMID 28074920; conditions: read-out: IC50 αVβ5 binding; cited from earlier work
αVβ3 = test system: αVβ3; design: method as in PMID 28074920; conditions: read-out: IC50 αVβ3 binding; cited from earlier work
αVβ5 receptor [6] = target: αVβ5 receptor; design: method as in PMID 22517378, PMID 23424096; conditions: free ligands, Table 1; mean ± SD of triplicate determinations; read-out: IC50 αVβ5, inhibition of biotinylated vitronectin binding; cited from earlier work
αVβ5 receptor [7] = assay: Inhibition of biotinylated vitronectin binding to αVβ5 receptor; conditions: ratio of IC50 values of Table 1

T1 sequence (P06756 31-992 limits assumed): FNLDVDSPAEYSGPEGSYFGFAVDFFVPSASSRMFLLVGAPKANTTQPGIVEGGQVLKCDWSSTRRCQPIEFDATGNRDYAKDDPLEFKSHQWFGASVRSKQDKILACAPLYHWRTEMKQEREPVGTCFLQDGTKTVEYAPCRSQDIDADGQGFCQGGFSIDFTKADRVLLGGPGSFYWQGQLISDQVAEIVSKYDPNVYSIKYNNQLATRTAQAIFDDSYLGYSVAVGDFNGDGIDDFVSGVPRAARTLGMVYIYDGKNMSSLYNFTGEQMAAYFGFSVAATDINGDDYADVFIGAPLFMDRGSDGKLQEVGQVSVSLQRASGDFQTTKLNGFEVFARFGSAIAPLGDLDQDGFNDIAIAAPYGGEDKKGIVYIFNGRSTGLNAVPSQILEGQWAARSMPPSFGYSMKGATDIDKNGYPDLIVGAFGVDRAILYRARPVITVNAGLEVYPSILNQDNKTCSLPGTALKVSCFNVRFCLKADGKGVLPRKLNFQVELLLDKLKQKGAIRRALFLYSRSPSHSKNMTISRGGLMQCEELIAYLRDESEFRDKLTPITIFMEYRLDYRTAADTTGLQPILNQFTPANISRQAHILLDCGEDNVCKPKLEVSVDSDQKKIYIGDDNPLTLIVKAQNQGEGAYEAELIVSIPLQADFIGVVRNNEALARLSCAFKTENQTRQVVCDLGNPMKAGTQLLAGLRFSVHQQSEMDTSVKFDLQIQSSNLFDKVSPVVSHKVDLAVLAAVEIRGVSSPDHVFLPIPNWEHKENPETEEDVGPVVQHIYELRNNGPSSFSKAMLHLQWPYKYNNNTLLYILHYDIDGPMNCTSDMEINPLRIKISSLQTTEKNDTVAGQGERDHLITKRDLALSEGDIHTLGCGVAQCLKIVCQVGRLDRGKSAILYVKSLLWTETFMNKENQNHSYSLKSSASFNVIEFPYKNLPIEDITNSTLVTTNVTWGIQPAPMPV
T1 sequence (P05106 27-718 limits assumed): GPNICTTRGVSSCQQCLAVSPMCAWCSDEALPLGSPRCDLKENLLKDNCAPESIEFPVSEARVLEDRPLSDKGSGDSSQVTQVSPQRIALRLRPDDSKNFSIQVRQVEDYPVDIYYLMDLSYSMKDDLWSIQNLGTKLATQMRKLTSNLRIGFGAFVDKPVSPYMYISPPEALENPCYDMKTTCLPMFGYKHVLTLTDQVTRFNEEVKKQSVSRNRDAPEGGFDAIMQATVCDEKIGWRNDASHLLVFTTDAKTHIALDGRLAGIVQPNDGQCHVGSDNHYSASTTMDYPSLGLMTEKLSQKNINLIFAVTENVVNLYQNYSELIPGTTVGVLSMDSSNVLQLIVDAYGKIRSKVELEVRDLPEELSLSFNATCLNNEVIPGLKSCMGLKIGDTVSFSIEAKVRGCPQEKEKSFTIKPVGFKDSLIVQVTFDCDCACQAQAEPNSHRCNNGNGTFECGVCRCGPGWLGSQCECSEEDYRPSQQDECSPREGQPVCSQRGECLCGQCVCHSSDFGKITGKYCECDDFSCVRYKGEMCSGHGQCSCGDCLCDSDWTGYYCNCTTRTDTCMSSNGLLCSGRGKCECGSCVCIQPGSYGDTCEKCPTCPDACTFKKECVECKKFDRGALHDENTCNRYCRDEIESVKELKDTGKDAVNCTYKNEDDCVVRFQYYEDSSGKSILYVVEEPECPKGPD

Compound: CC(=O)O[C@H]1C(=O)[C@@]2(C)[C@H]([C@H](OC(=O)c3ccccc3)[C@]3(O)C[C@H](OC(=O)[C@H](OC(=O)N(C)CCN(C)C(=O)OCc4ccc(NC(=O)[C@H](C)NC(=O)[C@@H](NC(=O)CCCC(=O)NCc5ccc(CN6C(=O)[C@H]7CC(=O)N[C@@H](CCCNC(=N)N)C(=O)NCC(=O)N[C@@H](CC(=O)O)C(=O)NC[C@H]6C(=O)N7)cc5)C(C)C)cc4)[C@@H](NC(=O)c4ccccc4)c4ccccc4)C(C)=C1C3(C)C)[C@]1(OC(C)=O)CO[C@@H]1C[C@@H]2O [Conjugate 5, cyclo[DKP-RGD]-Val-Ala-PTX]
- targeting index (TI) [1]: 2.4

Compound: CC[C@H](C)[C@@H]1NC(=O)CNC(=O)[C@@H]2Cc3c([nH]c4cc(OCCCCCCNC(=O)CCCC(=O)NCc5ccc(CN6C(=O)[C@H]7CC(=O)N[C@H](C(=O)O)CC(=O)NCC(=O)N[C@@H](CCCNC(=N)N)C(=O)NC[C@H]6C(=O)N7)cc5)ccc34)[S+]([O-])C[C@H](NC(=O)CNC1=O)C(=O)N[C@@H](CC(N)=O)C(=O)N1C[C@H](O)C[C@H]1C(=O)N[C@@H]([C@@H](C)[C@@H](O)CO)C(=O)N2 (stereo partly drawn) [Compound 8, cyclo[DKP-isoDGR]-uncleavable-α-amanitin]
- IC50 [2]: 0.0068 ± 0.0043 µM
- IC50 [3]: 3.355 ± 0.0191 µM
- IC50 [4]: 2.2 ± 0.0962 µM

Compound: CC[C@H](C)[C@@H]1NC(=O)CNC(=O)[C@@H]2Cc3c([nH]c4cc(OCCCCCCNC(=O)CCCC(=O)NCc5ccc(CN6C(=O)[C@H]7CC(=O)N[C@@H](CCCNC(=N)N)C(=O)NCC(=O)N[C@@H](CC(=O)O)C(=O)NC[C@H]6C(=O)N7)cc5)ccc34)[S+]([O-])C[C@H](NC(=O)CNC1=O)C(=O)N[C@@H](CC(N)=O)C(=O)N1C[C@H](O)C[C@H]1C(=O)N[C@@H]([C@@H](C)[C@@H](O)CO)C(=O)N2 (stereo partly drawn) [Compound 7, cyclo[DKP-RGD]-uncleavable-α-amanitin]
- IC50 [2]: 0.0116 ± 0.0024 µM
- IC50 [3]: 2.55 ± 0.0376 µM
- IC50 [4]: 1.11 ± 0.228 µM

Compound: CC[C@H](C)[C@@H]1NC(=O)CNC(=O)[C@@H]2Cc3c([nH]c4cc(OCc5ccc(NC(=O)[C@H](C)NC(=O)[C@@H](NC(=O)CCc6cn(CCOCCOCCOCCOCC(=O)NCc7ccc(CN8C(=O)[C@H]9CC(=O)N[C@H](C(=O)O)CC(=O)NCC(=O)N[C@@H](CCCNC(=N)N)C(=O)NC[C@H]8C(=O)N9)cc7)nn6)C(C)C)cc5)ccc34)[S+]([O-])C[C@H](NC(=O)CNC1=O)C(=O)N[C@@H](CC(N)=O)C(=O)N1C[C@H](O)C[C@H]1C(=O)N[C@@H]([C@@H](C)[C@@H](O)CO)C(=O)N2 (stereo partly drawn) [Compound 11, cyclo[DKP-isoDGR]-PEG-4-Val-Ala-α-amanitin]
- less potent than the free drug (α-amanitin) ([5]; A549 cell line): 1.4 times
- more potent than α-amanitin ([3]; in U87 and MDA-MB-468 cell lines, Table 3 entry 1 vs entry 6): 2.1–2.8 times

Compound: CC(=O)O[C@H]1C(=O)[C@@]2(C)[C@H]([C@H](OC(=O)c3ccccc3)[C@]3(O)C[C@H](OC(=O)[C@H](OC(=O)N(C)CCN(C)C(=O)OCc4ccc(NC(=O)[C@H](C)NC(=O)[C@@H](NC(=O)CCCC(=O)NCc5ccc(CN6C(=O)[C@H]7CC(=O)N[C@H](C(=O)O)CC(=O)NCC(=O)N[C@@H](CCCNC(=N)N)C(=O)NC[C@H]6C(=O)N7)cc5)C(C)C)cc4)[C@@H](NC(=O)c4ccccc4)c4ccccc4)C(C)=C1C3(C)C)[C@]1(OC(C)=O)CO[C@@H]1C[C@@H]2O [Conjugate 6, cyclo[DKP-isoDGR]-Val-Ala-PTX]
- targeting index (TI) [1]: 9.9

Compound: CC[C@H](C)[C@@H]1NC(=O)CNC(=O)[C@@H]2Cc3c([nH]c4cc(O)ccc34)[S@+]([O-])C[C@H](NC(=O)CNC1=O)C(=O)N[C@@H](CC(N)=O)C(=O)N1C[C@H](O)C[C@H]1C(=O)N[C@@H]([C@@H](C)[C@@H](O)CO)C(=O)N2 [α-amanitin]
- IC50 ([5]; Homo sapiens, A549, 96 hours treatment, triplicate, read-out: IC50 A549 (αVβ3−), inhibition of cell viability): 0.518 ± 0.305 µM
- IC50 ([3]; Homo sapiens, U-87 MG): 0.347 ± 0.133 µM
- IC50 ([4]; Homo sapiens, MDA-MB-468): 0.185 ± 0.0496 µM

Compound: cilengitide
- IC50 (α5β1): 0.0149 µM
- IC50 (αVβ5): 0.0084 µM
- IC50 (αVβ3): 0.0006 µM

Compound: N=C(N)NCCC[C@@H]1NC(=O)C[C@H]2NC(=O)[C@H](CNC(=O)[C@H](CC(=O)O)NC(=O)CNC1=O)N(Cc1ccccc1)C2=O [Ligand 1, cyclo[DKP-RGD]]
- IC50 (αVβ5 receptor [6]): 0.149 ± 0.025 µM
- selectivity for αVβ3 in comparison with integrin αVβ5 (αVβ5 receptor [7]): 33–34 times
